Biological target: T1, human GPR84 receptor (Homo sapiens, UniProt Q9NQS5)
T1 construct: host or cells: HEK293, transiently transfected
Assay: Gαi biosensor BRET assay (GPR84 antagonism vs agonist ZQ-16)
Type: cell-based
Conditions: HEK293 cells, 200 nmol/L agonist ZQ-16; for IC50: Gαi biosensor BRET assay; for inhibition at 2 µM: tested at 2 μM (concentration code A); for inhibition at 10 µM: tested at 10 μM (concentration code D)
Source text: Background—The following assays can be used for determination of GPR84 activation in living HEK293 cells. The Gai BRET biosensor (Gagnon et al., 2018; Gales et al., 2006. Nat Struct Mol Biol. 13, 778-86; Saulieres et al., 2012. Nat Chem Biol. 8, 622-30) allows to directly monitor GPR84-mediated activation of Gai. The Gai biosensor consists of a Rluc8-tagged Gai2 subunit, a GFP10-tagged Gy2 subunit, and an untagged GB1. Agonist stimulation and GPR84 activation triggers a physical separation between the RLuc8-Gai donor and the GFP10-Gy2 acceptor, resulting in a decrease in BRET signal whose amplitude is correlated to ligand efficacy (Gales et al., 2006). Moreover, signaling functions of GPCRs are tightly regulated by endocytosis, the targeting of receptors to endosomes and their sorting to lysosomes or recycling to the plasma membrane. The early endosomes (EEs) trafficking assay (Namkung et al., 2016. Nat Commun. 7, 12178) uses Rluc8-tagged GPR84 and Renilla GFP (rGFP) attached to the FYVE domain from human endofin/zinc finger FYVE domain-containing protein 16, which binds phosphatidylinositol 3-phosphate in EEs. Agonist stimulation of GPR84-Rluc8 leads to trafficking of the receptor to EEs, and ensuing increase of the donor concentration relative to the rGFP-FYVE acceptor anchored in the same cellular compartment, and thus results in an increase in BRET signal.
Plasmids—The cDNA clones for human GPR84 receptor, human Gai2, GB1, and Gy2 were obtained from the cDNA Resource Center (www.cdna.org). GFP10 (F64L, S147P, S202F and H231L variant of Aequorea victoria Green Fluorescent Protein) gBlocks gene fragments (Integrated DNA Technologies, IA) and linker were inserted in frame at the N-terminus of human Gy2. Rluc8 (A55T, C124A, S130A, K136R, A143M, M185V, M253L, and S287L variant of the Renilla reniformis luciferase) gBlocks gene fragment was inserted with linkers in frame in between residues 91 and 92 of Gai2 or at the C-terminus of GPR84. The FYVE domain from human endofin (residues Q739 to K806) attached in frame at the C terminus of a humanized Renilla GFP (rGFP), were synthesized as gBlocks gene fragments.
Bioluminescence Resonance Energy Transfer (BRET) Measurement-HEK293 cells were transfected with GPR84-Rluc8 and rGFP-FYVE for the EEs trafficking biosensor or with GPR84, Gai2-Rluc8, GFP10-Gy2, and GB1 for the Ga; biosensor. The following day, transiently transfected cells were seeded in 96-well white clear bottom microplates coated with poly-D-lysine and left in culture for 24 hours. Cells were washed once with Tyrode's buffer (140 mmol/L NaCl, 1 mmol/L CaCl2), 2.7 mmol/L KCl, 0.49 mmol/L MgCl2, 0.37 mmol/L NaH2PO4, 5.6 mmol/L glucose, 12 mmol/L NaHCO3, and 25 mmol/L HEPES, pH 7.5) before performing assays in Tyrode's buffer. Test compounds were incubated with cells for 5 (Gai) or 15 (EEs) minutes at 37° C. before addition of 200 nmol/L of the GPR84 agonist ZQ-16 (2-(Hexylthio)-6-hydroxy-4 (3H)-pyrimidinone) for 5 minutes at room temperature (Gai) or 30 minutes at 37° C. (EEs). The Rluc8 substrate coelenterazine 400A (Prolume, Lakeside, A Z) was added at a final concentration of 5 μmol/L and BRET readings were collected using an Infinite M1000 microplate reader (Tecan, Morrisville, N C). BRET2 readings between Rluc8 and GFP10 or rGFP were collected by sequential integration of the signals detected in the 370 to 450 nm (Rluc8) and 510 to 540 nm (GFP10, rGFP) windows. The BRET signal was calculated as the ratio of light emitted by acceptor (GFP10, rGFP) over the light emitted by donor (Rluc8). The values were corrected to net BRET by subtracting the background BRET signal obtained in cells transfected with Rluc8 constructs alone. Ligand-promoted net BRET values were calculated by subtracting vehicle-induced net BRET from ligand-induced net BRET.

T1 sequence (Q9NQS5 whole entry): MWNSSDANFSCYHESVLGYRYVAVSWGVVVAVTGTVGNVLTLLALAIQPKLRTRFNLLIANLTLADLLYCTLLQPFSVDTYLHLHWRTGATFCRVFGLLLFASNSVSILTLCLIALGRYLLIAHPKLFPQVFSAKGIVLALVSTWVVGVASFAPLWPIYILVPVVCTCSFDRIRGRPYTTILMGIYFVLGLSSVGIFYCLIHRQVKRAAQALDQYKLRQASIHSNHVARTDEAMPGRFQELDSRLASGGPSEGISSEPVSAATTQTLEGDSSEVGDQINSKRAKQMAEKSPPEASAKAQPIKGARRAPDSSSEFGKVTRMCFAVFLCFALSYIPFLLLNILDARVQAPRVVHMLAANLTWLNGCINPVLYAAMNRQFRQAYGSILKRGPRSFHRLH

| SMILES | IC50 [µM] | inhibition at 2 µM [%] | inhibition at 10 µM [%] |
| --- | --- | --- | --- |
| Cc1cc(OCC(=O)N2CCC2)cc(=O)n1[C@H](C)c1ccc(C#CC2CC2)cc1 [Compound I-1, (R)-4-(2-(azetidin-1-yl)-2-oxoethoxy)-1-(1-(4-(cyclopropylethynyl)phenyl)ethyl)-6-methylpyridin-2 (1H)-one] | ≤ 0.3 | > 75 | – |
| Cc1cc(OCC(=O)N2CCCC2)cc(=O)n1[C@H](C)c1ccc(C#CC2CC2)cc1 [Compound I-2] | ≤ 0.3 | > 75 | – |
| Cc1cc(OCC(=O)N2CCOCC2)cc(=O)n1[C@H](C)c1ccc(C#CC2CC2)cc1 [Compound I-3] | ≤ 0.3 | > 75 | – |
| COc1cncnc1COc1cc(C)n([C@H](C)c2ccc(C#CC3CC3)cc2)c(=O)c1 [Compound I-4] | – | – | > 75 |
| CCCCc1ccc(C(C)n2c(C)cc(OCc3ncccn3)cc2=O)cc1 (centres unmarked) [Compound I-5, 1-(1-(4-butylphenyl)ethyl)-6-methyl-4-(pyrimidin-2-ylmethoxy)pyridin-2 (1H)-one] | – | – | < 25 |
| [2H]C([2H])([2H])N(C(=O)COc1cc(C)n([C@H](C)c2ccc(C#CC3CC3)cc2)c(=O)c1)C([2H])([2H])[2H] [Compound I-6] | ≤ 0.3 | > 75 | – |
| Cc1cc(OCC(=O)N2CC(F)(F)C2)cc(=O)n1[C@H](C)c1ccc(C#CC2CC2)cc1 [Compound I-7] | 0.3 to 1 | – | > 75 |
| Cc1cc(OCC(=O)N2CCC(F)(F)CC2)cc(=O)n1[C@H](C)c1ccc(C#CC2CC2)cc1 [Compound I-8] | – | – | > 75 |
| Cc1cc(OCC2COCCO2)cc(=O)n1[C@H](C)c1ccc(NC(=O)c2cnccn2)c(F)c1 (stereo partly drawn) [Compound I-9, N-(4-((1R)-1-(4-((1,4-dioxan-2-yl)methoxy)-6-methyl-2-oxopyridin-1 (2H)-yl)ethyl)-2-fluorophenyl) pyrazine-2-carboxamide] | – | – | < 25 |
| Cc1cc(OCc2ncccn2)cc(=O)n1[C@H](C)c1ccc(-c2cnc(C3CC3)cn2)c(F)c1 [Compound I-10] | – | – | < 25 |
| Cc1cc(OCc2ncc(NS(C)(=O)=O)cn2)cc(=O)n1[C@H](C)c1ccc(C#CC2CC2)cc1 [Compound I-11] | ≤ 0.3 | > 75 | – |
| Cc1noc(COc2cc(C)n([C@H](C)c3ccc(C#CC4CC4)cc3)c(=O)c2)n1 [Compound I-12] | – | – | > 75 |
| Cc1cc(OCc2cnc(C3CC3)cn2)cc(=O)n1C(C)c1ccc(OCC2CCCCO2)c(F)c1 (centres unmarked) [Compound I-13] | – | – | < 25 |
| Cc1cc(OCC(=O)N(C)C)cc(=O)n1[C@H](C)c1ccc(C#CC2CC2)c(F)c1 [Compound I-14] | ≤ 0.3 | > 75 | – |
| Cc1cc(OCc2ncncc2Cl)cc(=O)n1[C@H](C)c1ccc(C#CC2CC2)cc1 [Compound I-15] | ≤ 0.3 | – | > 75 |
| Cc1cc(OCC2COCCO2)cc(=O)n1C(C)c1ccc(OCC2CCN(C(=O)C3CC3)CC2)c(F)c1 (centres unmarked) [Compound I-16] | – | – | < 25 |
| Cc1nnc(COc2cc(C)n([C@H](C)c3ccc(C#CC4CC4)c(F)c3)c(=O)c2)o1 [Compound I-17] | ≤ 0.3 | > 75 | – |
| Cc1noc(COc2cc(C)n([C@H](C)c3ccc(C#CC4CC4)c(F)c3)c(=O)c2)n1 [Compound I-18] | – | – | > 75 |
| Cc1cc(OCC2(N(C)C)COC2)cc(=O)n1[C@H](C)c1ccc(C#CC2CC2)c(F)c1 [Compound I-19] | – | – | 50 to 75 |
| CCCC#Cc1ccc([C@@H](C)n2c(C)cc(OCC(=O)N(C)C)cc2=O)cc1 [Compound I-20] | ≤ 0.3 | – | > 75 |
| Cc1cc(OCC(=O)O)cc(=O)n1[C@H](C)c1ccc(C#CC2CC2)cc1 [Compound I-21] | – | – | 50 to 75 |

The remaining lines, values ahead:

| IC50 [µM] | inhibition at 2 µM [%] | inhibition at 10 µM [%] | SMILES |
| --- | --- | --- | --- |
| ≤ 0.3 | > 75 | – | Cc1cc(OCC(=O)N(C)C)cc(=O)n1[C@H](C)c1ccc(C#CC2CC2(F)F)c(F)c1 (single isomer, unassigned) [Compound I-83] |
| ≤ 0.3 | – | – | Cc1cc(OCC(=O)N(C)C)cc(=O)n1[C@H](C)c1ccc(C#CC2CC2(F)F)c(F)c1 (single isomer, unassigned) [Compound I-84] |
| – | – | > 75 | COC(=O)COc1cc(C)n([C@H](C)c2ccc(C#CC3CC3)cc2)c(=O)c1 [Compound I-22] |
| ≤ 0.3 | > 75 | – | Cc1cc(OCC(=O)N2CCC2)cc(=O)n1[C@H](C)c1ccc(C#CC2CC2)c(F)c1 [Compound I-23] |
| 0.3 to 1 | – | > 75 | Cc1cc(OCC(=O)N2CC(F)(F)C2)cc(=O)n1[C@H](C)c1ccc(C#CC2CC2)c(F)c1 [Compound I-24] |
| ≤ 0.3 | > 75 | – | Cc1cc(OCC(=O)N2CCCC2)cc(=O)n1[C@H](C)c1ccc(C#CC2CC2)c(F)c1 [Compound I-25] |
| – | – | > 75 | Cc1cc(OCC(=O)N2CCC(F)(F)CC2)cc(=O)n1[C@H](C)c1ccc(C#CC2CC2)c(F)c1 [Compound I-26] |
| – | – | > 75 | Cc1cc(OCC(=O)N2CCOCC2)cc(=O)n1[C@H](C)c1ccc(C#CC2CC2)c(F)c1 [Compound I-27] |
| ≤ 0.3 | – | > 75 | CCC#Cc1ccc([C@@H](C)n2c(C)cc(OCC(=O)N(C)C)cc2=O)cc1 [Compound I-28] |
| ≤ 0.3 | > 75 | – | Cc1cc(OCC(=O)N(C)C)cc(=O)n1[C@H](C)c1ccc(C#CC2CC2)c(Cl)c1 [Compound I-29] |
| – | – | 50 to 75 | Cc1cc(OCC2(N(C)C)CC2)cc(=O)n1[C@H](C)c1ccc(C#CC2CC2)cc1 [Compound I-30] |
| – | – | 25 to 50 | Cc1cc(OCC2(N(C)C)CC2)cc(=O)n1[C@H](C)c1ccc(C#CC2CC2)c(F)c1 [Compound I-31] |
| ≤ 0.3 | > 75 | – | Cc1cc(OCC(=O)N(C)C)cc(=O)n1[C@H](C)c1ccc(C#CCC2CC2)cc1 [Compound I-32] |
| – | – | > 75 | Cc1cc(OCC(=O)N(C)C)cc(=O)n1[C@H](C)c1ccc(C#CC2CC2)c(C2CC2)c1 [Compound I-33] |
| ≤ 0.3 | > 75 | – | Cc1cc(OCC(=O)N(C)C)cc(=O)n1[C@H](C)c1ccc(C#CC2CC2)c(C#N)c1 [Compound I-34] |
| ≤ 0.3 | > 75 | – | Cc1cc(OCC(=O)N(C)C)cc(=O)n1[C@H](C)c1ccc(C#CC2CC2)c(Br)c1 [Compound I-35] |
| – | – | > 75 | Cc1cc(OCC2(N(C)C)COC2)cc(=O)n1[C@H](C)c1ccc(C#CC2CC2)cc1 [Compound I-36] |
| – | – | 50 to 75 | Cc1cc(OCS(=O)(=O)N(C)C)cc(=O)n1[C@H](C)c1ccc(C#CC2CC2)c(F)c1 [Compound I-37, (R)-1-(1-(1-(4-(cyclopropylethynyl)-3-fluorophenyl)ethyl)-6-methyl-2-oxo-1,2-dihydropyridin-4-yloxy)-N,N-dimethylmethanesulfonamide] |
| – | – | > 75 | Cc1cc(OCC(=O)N(C)C)cc(=O)n1[C@H](C)c1ccc(C#CC2CC2)c(N(C)C)c1 [Compound I-38] |
| ≤ 0.3 | > 75 | – | CCc1cc([C@@H](C)n2c(C)cc(OCC(=O)N(C)C)cc2=O)ccc1C#CC1CC1 [Compound I-39] |
| – | – | 25 to 50 | Cc1cc(OCC2OCCC(C)(C)O2)cc(=O)n1[C@H](C)c1ccc(C#CC2CC2)cc1 (some centres unmarked) [Compound I-40] |

From patent publication US20260055117A1, “SUBSTITUTED PYRIDONE GPR84 ANTAGONISTS AND USES THEREOF” (Liminal BioSciences Limited, priority 2022, published 2026)
